Laboratory results as given in ChEMBL document CHEMBL4270561, “Biological activity of doubly modified salinomycin analogs - Evaluation in vitro and ex vivo” (Eur J Med Chem, 2018).
Calls of active or inactive are those of the source. No cut-off for these calls is given here.

Key:
SK-BR-3 [1] = assay: Antiproliferative activity against human SK-BR-3 cells after 72 hrs by SRB assay; type: functional, cell-based; conditions: SK-BR-3, 72 h
[2] = Cell cycle arrest in human ALL5 cells assessed as accumulation at S-phase at 5 times antiproliferative IC50 after 48 hrs by propidium iodide staining based flow cytometry (reference value: 9.82%); type: functional
[3] = Cell cycle arrest in human ALL5 cells assessed as accumulation at sub-G1 phase at 5 times antiproliferative IC50 after 48 hrs by propidium iodide staining based flow cytometry (reference value: 7.8%); type: functional
LoVo = assay: Antiproliferative activity against human LoVo cells after 72 hrs by SRB assay; type: functional, cell-based
[4] = Cell cycle arrest in human ALL5 cells assessed as accumulation at G2/M-phase at 5 times antiproliferative IC50 after 24 hrs by propidium iodide staining based flow cytometry (reference value: 7.98%); type: functional
[5] = Cell cycle arrest in human ALL5 cells assessed as accumulation at sub-G1 phase at 5 times antiproliferative IC50 after 24 hrs by propidium iodide staining based flow cytometry (reference value: 6.07%); type: functional
MCF7 = assay: Antiproliferative activity against human MCF7 cells after 72 hrs by SRB assay; type: functional, cell-based; conditions: MCF7, 72 h
[6] = Cell cycle arrest in human ALL5 cells assessed as accumulation at sub-G1 phase at 5 times antiproliferative IC50 after 96 hrs by propidium iodide staining based flow cytometry (reference value: 12%); type: functional
[7] = Cell cycle arrest in human ALL5 cells assessed as accumulation at G2/M-phase at 5 times antiproliferative IC50 after 48 hrs by propidium iodide staining based flow cytometry (reference value: 13.2%); type: functional
[8] = Antiproliferative activity against human LoVo/DX cells after 72 hrs by SRB assay; type: functional, cell-based
Homo sapiens [9] = organism: Homo sapiens; assay: Induction of apoptosis in human ALL5 cells assessed as increase in cleaved PARP expression at 0.2 uM up to 96 hrs by immunoblot analysis; type: functional, cell-based
JIMT-1 = assay: Antiproliferative activity against human JIMT1 cells after 72 hrs by SRB assay; type: functional, cell-based; conditions: JIMT-1, 72 h
[10] = Cell cycle arrest in human ALL5 cells assessed as accumulation at G2/M-phase at 5 times antiproliferative IC50 after 96 hrs by propidium iodide staining based flow cytometry (reference value: 11.1%); type: functional
[11] = Antiproliferative activity against human ALL5 cells after 120 hrs by MTT assay; type: functional, cell-based; conditions: ALL5, 120 h
Homo sapiens [12] = organism: Homo sapiens; assay: Induction of apoptosis in human ALL5 cells assessed as increase in p53 expression at 0.2 uM up to 96 hrs by immunoblot analysis; type: functional, cell-based
[13] = Cell cycle arrest in human ALL5 cells assessed as accumulation at G0/G1 phase at 5 times antiproliferative IC50 after 48 hrs by propidium iodide staining based flow cytometry (reference value: 69.6%); type: functional
MCF-10A [14] = assay: Antiproliferative activity against human MCF10A cells after 72 hrs by SRB assay; type: cell-based
[15] = Cell cycle arrest in human ALL5 cells assessed as accumulation at G0/G1 phase at 5 times antiproliferative IC50 after 24 hrs by propidium iodide staining based flow cytometry (reference value: 79.7%); type: functional
[16] = Cell cycle arrest in human ALL5 cells assessed as accumulation at G0/G1 phase at 5 times antiproliferative IC50 after 96 hrs by propidium iodide staining based flow cytometry (reference value: 69.8%); type: functional
[17] = Cell cycle arrest in human ALL5 cells assessed as accumulation at S-phase at 5 times antiproliferative IC50 after 96 hrs by propidium iodide staining based flow cytometry (reference value: 7.52%); type: functional
SK-BR-3 [18] = assay: Antiproliferative activity against human SK-BR-3 cells at 100 ug/ml after 72 hrs by SRB assay relative to control; type: functional
[19] = Cell cycle arrest in human ALL5 cells assessed as accumulation at S-phase at 5 times antiproliferative IC50 after 24 hrs by propidium iodide staining based flow cytometry (reference value: 6.76%); type: functional
[20] = Resistance index, ratio of IC50 for human LoVo/DX cells to IC50 for human LoVo cells; type: functional
MCF-10A [21] = assay: Antiproliferative activity against human MCF10A cells at 100 ug/ml after 72 hrs by SRB assay relative to control; type: cell-based
Breast carcinoma cell [22] = assay: Ex vivo antitumor activity against patient derived breast cancer tissue assessed as increase in number of dead tumor cells at 6.2 uM by H and E staining based immunohistochemical analysis; type: functional; conditions: Homo sapiens, TDE = time-dependent effect
[23] = Selectivity index, ratio of IC50 for human MCF10A cells to IC50 for human SK-BR-3 cells; type: toxicity; conditions: MCF10A cells versus SK-BR-3 cells, read-out: Ratio IC50
[24] = Selectivity index, ratio of IC50 for human MCF10A cells to IC50 for human JIMT1 cells; type: toxicity; conditions: MCF10A cells versus JIMT1 cells, read-out: Ratio IC50
[25] = Selectivity index, ratio of IC50 for human MCF10A cells to IC50 for human MCF7 cells; type: toxicity; conditions: MCF10A cells versus MCF7 cells, read-out: Ratio IC50
[26] = Selectivity index, ratio of IC50 for human MCF10A cells to IC50 for human LoVo cells; type: toxicity; conditions: MCF10A cells versus LoVo cells, read-out: Ratio IC50
[27] = Selectivity index, ratio of IC50 for human MCF10A cells to IC50 for human ALL5 cells; type: toxicity; conditions: MCF10A cells versus ALL5 cells, read-out: Ratio IC50
Breast carcinoma cell [28] = assay: Ex vivo antitumor activity against patient derived breast cancer tissue assessed as decrease in tumor cell proliferation at 6.2 uM by Ki-67 staining based immunohistochemical analysis; type: functional; conditions: Homo sapiens, TDE = time-dependent effect
[29] = Selectivity index, ratio of IC50 for human MCF10A cells to IC50 for human LoVo/DX cells; type: toxicity; conditions: MCF10A cells versus LoVo/DX cells, read-out: Ratio IC50

Compound `COc1cccc2c1C(=O)c1c(O)c3c(c(O)c1C2=O)C[C@@](O)(C(=O)CO)C[C@@H]3O[C@H]1C[C@H](N)[C@H](O)[C@H](C)O1` [DOXORUBICIN] has an IC50 (SK-BR-3 [1]) of 370 nM, an Activity [2] of 3.23% and an Activity [3] of 27.4%. It also gave an IC50 (LoVo) of 240 nM, an Activity [4] of 8.96% and an Activity [5] of 8.94%. The IC50 (MCF7) was 260 nM, the Activity [6] was 62.7% and the Activity [7] was 2.76%. For the same compound, the IC50 [8] was 10000 nM, the Activity (Homo sapiens [9]) was “Active” and the IC50 (JIMT-1) was 590 nM. The Activity [10] was 2.16%, the IC50 [11] was 40 nM and the Activity (Homo sapiens [12]) was “Active”. The Activity [13] was 66.8%, the IC50 (MCF-10A [14]) was 580 nM and the Activity [15] was 78.2%. For the same compound, the Activity [16] was 31.6%.
With `C#CCOC(=O)[C@H](CC)[C@H]1CC[C@H](C)[C@H]([C@@H](C)[C@H](O)[C@H](C)C(=O)[C@H](CC)[C@H]2O[C@]3(C=C[C@@H](OC(C)=O)[C@]4(CC[C@@](C)([C@H]5CC[C@](O)(CC)[C@H](C)O5)O4)O3)[C@H](C)C[C@@H]2C)O1` the Activity [2] was 5.62%, the Activity [17] was 5.06% and the Activity [3] was 9.68%. For the same compound, the IC50 (LoVo) was 12000 nM, the Activity [4] was 9.12% and the Activity [5] was 5.15%. The IC50 (MCF7) was 7400 nM, the Activity [6] was 26.8% and the Activity [7] was 11.5%. The IC50 [8] was 5200 nM, the Activity (SK-BR-3 [18]) was “<=50%” and the IC50 (JIMT-1) was 27000 nM. The Activity [10] was 10.6%, the IC50 [11] was 2600 nM and the Activity [19] was 5.99%. The Activity [13] was 73.5%, the “Ratio IC50” value [20] was 0.43 and the Activity [15] was 80.2%. The Activity [16] was 57.7% and the Activity (MCF-10A [21]) was “<= 50%”.
Work on `C#CCOC(=O)[C@H](CC)[C@H]1CC[C@H](C)[C@H]([C@@H](C)[C@H](O)[C@H](C)C(=O)[C@H](CC)[C@H]2O[C@]3(C=C[C@@H](OC(=O)NCC)[C@]4(CC[C@@](C)([C@H]5CC[C@](O)(CC)[C@H](C)O5)O4)O3)[C@H](C)C[C@@H]2C)O1` yielded an IC50 (SK-BR-3 [1]) of 25000 nM, an Activity [2] of 5.8% and an Activity [17] of 3.67%. It also gave an Activity [3] of 19.6%, an IC50 (LoVo) of 5200 nM and an Activity [4] of 9.7%. The Activity [5] was 6.58%, the IC50 (MCF7) was 5000 nM and the Activity [6] was 43.6%. It also gave an Activity [7] of 13.8%, an IC50 [8] of 3400 nM and an IC50 (JIMT-1) of 7400 nM. The Activity [10] was 10.9%, the IC50 [11] was 6900 nM and the Activity [19] was 5.16%. For the same compound, the Activity [13] was 61.1%, the “Ratio IC50” value [20] was 0.65 and the Activity [15] was 78.8%. For the same compound, the Activity [16] was 42% and the Activity (MCF-10A [21]) was “<= 50%”.
For `CC[C@@H](C(=O)[C@@H](C)[C@@H](O)[C@H](C)[C@@H]1O[C@@H]([C@@H](CC)C(=O)O)CC[C@@H]1C)[C@H]1O[C@]2(C=C[C@@H](O)[C@]3(CC[C@@](C)([C@H]4CC[C@](O)(CC)[C@H](C)O4)O3)O2)[C@H](C)C[C@@H]1C` [SALINOMYCIN], the IC50 (SK-BR-3 [1]) was 890 nM, the Activity (Breast carcinoma cell [22]) was “Tde” and the IC50 (LoVo) was 440 nM. It also gave an IC50 (MCF7) of 1500 nM, a selectivity ratio [23] of 52 and an IC50 [8] of 690 nM. It also gave a selectivity ratio [24] of 35, an IC50 (JIMT-1) of 1300 nM and a selectivity ratio [25] of 31. It also gave a selectivity ratio [26] of 105, a selectivity ratio [27] of 19 and an IC50 [11] of 2400 nM. For the same compound, the “Ratio IC50” value [20] was 1.6, the IC50 (MCF-10A [14]) was 46000 nM and the Activity (Breast carcinoma cell [28]) was “Tde”. It also gave a selectivity ratio [29] of 67.
